Measurements as given in a melting point compilation (Tetko et al.; mined from patent text by program, amines drawn as free bases though some values may be those of a salt).

melting point [°C] | SMILES
174 to 176 | CCc1ccc(Nc2nc3cc(NC(=O)c4ccccc4Nc4cccc(C(F)(F)F)c4)ccc3o2)cc1
> 300 | CSc1nn2c(=O)[nH]c(C)nc2c1S(=O)(=O)c1ccccc1
195 to 197 | Cc1cc(I)c(C(N)=O)cc1C
234 to 238 | Brc1ccc(N2CCN(Cc3c[nH]c4ncccc34)CC2)cc1
124 to 126 | COc1ccc(N2CCN(c3c(C)c(C)c4c(c3C)C(N3CCCC3)C(C)(C)O4)CC2)cc1 (stereo not drawn)
208 to 210 | Cc1cc(Cl)cc2c1OCC(/C=C/C=C/C=C/C(=O)O)=C2
214 to 216 | O=C1CCC(N2C(=O)c3cccc(Nc4ccccc4)c3C2=O)C(=O)N1 (stereo not drawn)
76 to 77 | C=CCNS(=O)(=O)c1ccc(I)cc1
67 to 70 | CCOc1ccc(C(=O)C2CC2)cc1
167 to 168 | Cc1ccc(-n2nc(C#N)cc2-c2ccc(S(C)(=O)=O)cc2)cc1F
130 to 131 | CC(CCCO)C1CCC2C3CC=C4CC(OC5CCCCO5)CCC4(C)C3CCC12C (stereo not drawn)
87 to 89 | O=C(Nc1cccc(C(F)(F)F)c1)C(=O)N1CCC(Cc2ccccc2)CC1
107 to 110 | CCOC(=O)c1cnc(-c2cc(N)ccc2OCC)[nH]c1=O
124 to 126 | CC(C)c1cccc(C(C)C)c1NC(=O)CC(=O)c1ccccc1
67 to 68 | CCCc1cccc2c(/C=C(\C)C(=O)O)cc(OC)c(O)c12
197 to 198 | CC(C)(Cc1ccccc1)C(NC(=O)c1cc(Cl)cc(Cl)c1)Nc1c(Nc2cccnc2)c(=O)c1=O (stereo not drawn)
118 to 122 | O=C(c1ccc(F)cc1)N1CCCC(c2nc(-c3ccc(F)cc3)no2)C1 (stereo not drawn)
99 to 100 | CCOC(=O)c1csc(N2CCSCC2)n1
105 to 108 | CC(C)(C)c1cc(N)cc(C(C)(C)C)c1O
142 to 144 | COc1cc2c(cc1O)CN(C(C)=O)CC2
101 to 122 | CN1CCN(c2nc(-c3ccccc3)c3ccccc3n2)CC1
166 to 168 | CS(=O)(=O)Nc1c(C(=O)c2ccccc2)[nH]c2cc(F)ccc12
154 | Cc1cc(C)cc(S(=O)(=O)n2c(COC(C)(C)C(=O)O)cc3nc(Cl)ccc32)c1
202 to 204 | Cc1nc2c(N)nc3ccc(OCc4ccccc4)cc3c2n1CCCCNC(=O)Nc1ccccc1

melting point [°C] | SMILES
144 | CC(=O)COc1cc2c(c(Cl)c1Cl)C(=O)C(C)(c1ccccc1)C2 (stereo not drawn)
95 to 98 | COC(=O)CCCCc1cc2cc(Cl)ccc2n1S(=O)(=O)c1ccccc1
204 to 206 | O=C(Nc1ccc(Cl)cc1)C(Oc1cccc2ccccc12)C1CC1 (stereo not drawn)
165 | CC(c1ccc2[nH]c(C(F)(F)F)nc2c1)n1ccnc1 (stereo not drawn)
144 to 146 | CCCCc1nc2c(N)nc3ccccc3c2n1CCCNC(=S)NCCC
225 to 227 | C1=c2ccccc2=c2c1c1cnccc1c1c2=Cc2ccccc2-1
74 to 75 | Cc1cc(Cl)cc(Cl)c1OC(=O)c1ccc(CCl)cc1
117 to 120 | CCc1scc2c1CN(S(=O)(=O)c1ccc(C)cc1)C2
158 to 159 | CNC(=O)N1CC(Oc2ccc(Cl)c(Cl)c2)C1
68 to 70 | c1ccc(C2CN3CCN=C3S2)cc1 (stereo not drawn)
89 to 91 | CCNC(=O)c1c(Cl)cccc1[Si](C)(C)c1ccccc1
155 to 156 | COc1ccccc1Nc1cc(C(=O)Nc2ccccc2)ccc1OC
222 to 224 | O=C(O)COc1ccc2c(-c3ccc(Cl)c(Cl)c3)noc2c1Cl
47 to 49 | C=CS(=O)(=O)CC(COCCCCCCCCCCCCCCCCCC)OC (stereo not drawn)
140 to 141 | O=C(N1Cc2ccccc2Nc2ccccc21)C(F)(F)F
237 | Cc1cc(-c2cnn3c(C(F)(F)F)cc(-c4ccc(C(F)(F)F)c(C)c4)nc23)ccn1
35 to 36 | CCCCC(CC)COC(=O)c1cc(OC)c(O)c(OC)c1 (stereo not drawn)
146 to 149 | CC(C)NC(=O)c1cc(-n2c(=O)cc(C(F)(F)F)n(C)c2=O)c(F)cc1Cl
166 | CCCc1c(CSc2nnc(NC(=O)CCC(=O)OCC)s2)ccc(C(C)=O)c1O
187 to 189 | CS(=O)c1ccccc1CN1CCC(=O)C(C(c2ccc(F)cc2)c2ccc(F)cc2)C1 (stereo not drawn)
209 to 210 | Nc1ccc(S(=O)(=O)Nc2nnc(CC(=O)O)s2)cc1
158 | O=Cc1ccc(C(=O)Nc2ccc(Cl)cc2)cc1
268 | CCOc1cc(-c2cc(C(F)(F)F)n3ncc(C(=O)Nc4cccc(S(=O)(=O)NC(C)(C)CO)c4)c3n2)ccc1C(F)(F)F
166 to 168 | CC(=O)SCC(Cc1ccccc1)C(=O)NC1(C(=O)OCc2ccccc2)CCCCC1 (stereo not drawn)

melting point [°C] | SMILES
283 | CC1SC(=O)NN=C1c1ccc2c(c1)C(=NNc1ccc(Cl)cc1)C(=O)N2 (stereo not drawn)
56 to 59 | CCCCCCCCCCCC(=O)NC(C)c1c[nH]c(CCCCCCCCCCC)n1 (stereo not drawn)
128 to 130 | Cc1ccccc1C(=O)Nc1ccc(-n2nc(C3CC3)cc2C2CC2)cc1
238 to 244 | C[C@@H](Nc1ccc([N+](=O)[O-])cc1)C(=O)O
169 to 171 | O=C1c2ccccc2-c2c1c1ccccc1c(=O)n2CCCCCNS(=O)(=O)c1ccc(Br)cc1
251 | COc1cc(OC)c2c(=O)[nH]c(-c3ccc(CCC(=O)O)cc3)nc2c1
247 to 252 | Cc1ccc(C(=O)C2=C(O)C(=O)N(c3ncc(S(=O)(=O)N4CCOCC4)s3)C2c2ccc(C(C)C)cc2)cc1 (stereo not drawn)
142 to 144 | COc1ccccc1C(=O)CN1c2nc(-c3ccncc3)cc(=O)n2CCC1c1ccccc1 (stereo not drawn)
99 to 100 | O=C(OCc1ccccc1)C1NN=C(c2ccc(C(F)(F)F)cc2)S1 (stereo not drawn)
116 to 123 | Cc1cc(Br)c2ncn([C@H](C)[C@](O)(Cn3cncn3)c3ccc(F)cc3F)c(=O)c2c1
106 to 108 | C/C(O)=C(\C#N)C(=O)Sc1ccccc1
154 | CCOc1cnc(C(C)C)nc1O
190 to 206 | O=c1ccn(CC(O)CO)c(C(OC2CCCCO2)c2ccccc2)c1OCc1ccccc1 (stereo not drawn)
75 to 77 | Cc1cc([N+](=O)[O-])c(C)cc1Cc1cccc(C(F)(F)F)c1
252 | COc1cc(C(=O)c2ncc3ccc(N)cn23)ccc1[N+](=O)[O-]
93 to 95 | COC(=O)C=Cc1ccc(OCCN(C)c2ccccn2)cc1
131 to 134 | CC(C)CC(NC(=O)CNc1ccc(Cl)cc1)C(=O)NCC#N (stereo not drawn)
73.8 to 74 | COCOc1ccc(C(=O)OC)c(O)c1C
171 to 173 | CC(C)(C)OC(=O)Nc1cccc(C(=O)NCC(=O)OCc2ccccc2)c1
193 to 197 | O=C1NCCN(N=Cc2ccco2)C1=O
199 to 200 | CCCc1nn(C)c2c(=O)[nH]cnc12
287 to 288 | O=C(O)c1cc2c(c(C(=O)O)c1)NCCCC2

SMILES | melting point [°C]
CCCCCC(C)C(C)c1cc(O)c2c(c1)OC(C)(C)C1=C2CN(CC(=O)Nc2ccccc2)CC1 (stereo not drawn) | 125 to 127
CCNC(=O)Nc1ccc2c(c1Cl)C(c1ccccc1F)=NCC(=O)N2C | 155 to 160
FC(F)(F)c1ccc2c(c1)C(c1ccccc1)=NCc1nncn1-2 | 258 to 260
